# Assay results reported in US10435396B2, “2-substituted indazoles, methods for producing same, pharmaceutical preparations that contain same, and use of same to produce drugs” (Bayer Pharma Aktiengesellschaft, priority 2016, dated 2019).
# Tested on: secretion of TNF-α in THP-1 cells
# Assay: TNF-α secretion in THP-1 cells (LPS-triggered)
# Format: cell-based, human
# Details: Homo sapiens, THP-1, 17 h, LPS 0.05 μg/ml, read-out: IC50 with respect to the secretion of TNF-α in THP-1 cells
# Description: TNF-α Secretion in THP-1 Cells
# With the aid of this test, it is possible to test substances for their ability to inhibit secretion of TNF-α (tumour necrosis factor alpha) in THP-1 cells (human monocytic acute leukaemia cell line). TNF-α is a cytokine involved in inflammatory processes. In this test, TNF-α secretion is triggered by incubation with bacterial lipopolysaccharide (LPS).
# THP-1 cells are kept in continuous suspension cell culture [RPMI 1460 medium with L-Glutamax (Gibco, Cat No. 61870-044) supplemented with foetal calf serum (FCS) 10% (Invitrogen, Cat No. 10082-147), 1% penicillin/streptomycin (Gibco BRL, Cat No. 15140-114)] and should not exceed a cell concentration of 1×10^6 cells/ml. The assay is carried out in cell culture medium (RPMI 1460 medium with L-Glutamax supplemented with FCS 10%).
# In each case 2-2.5 μl of the cell suspension (corresponds to 4000 cells) per well were dispensed into a 384-well test plate (Greiner, Cat No. 784076), in each of which 40-50 nl substance had been dissolved in 100% DMSO. This was done using […] in the range from 20 μM to 0.073 nM for each substance. The cells were incubated at room temperature for 15 min. 2-2.5 μl of 0.1 μg/ml LPS (Sigma, Escherichia coli 055:B5, Cat. No. L5418) dissolved in cell culture medium (final concentration 0.05 μg/ml) were then dispensed into each well. As neutral control, cells were treated with 0.05 μg/ml LPS and 1% DMSO and, as inhibitor control, with 1% DMSO only.
# The plates were centrifuged at 80 g for 30 s and incubated at 37° C., 5% CO2 and 95% atmospheric humidity for 17 h. The amount of TNF-α was determined using the TNF-alpha HTRF Detection Kit (Cisbio, Cat No. 62TNFPEB/C). To this end, 2 μl of the detection solution in each case, consisting of anti-TNF-α-XL665 conjugate and anti-TNF-α-cryptate conjugate dissolved in the reconstitution buffer in accordance with the manufacturer's instructions, were added for the HTRF (Homogeneous Time-Resolved Fluorescence) test. After the addition, the mixture was incubated either at room temperature for 3 h or at 4° C. overnight. The signals were then read at 620/665 nm using an HTRF-enabled measuring instrument such as the BMG PheraStar.
# The activity of the substances is expressed as the ratio between neutral and inhibitor control in percent. The IC50 values were calculated using a 4-parameter fit.
row,Compound,IC50 [nM]
1,"O=C(Nc1cc2cn(C3CCS(=O)(=O)CC3)nc2cc1OCC1CC1)c1cccc(C(F)(F)F)n1 [Example 17, N-[6-(Cyclopropylmethoxy)-2-(1,1-dioxidotetrahydro-2H-thiopyran-4-yl)-2H-indazol-5-yl]-6-(trifluoromethyl)pyridine-2-carboxamide]",110
2,"CC(C)(O)c1cccc(C(=O)Nc2cc3cn(C4CCS(=O)(=O)CC4)nc3cc2Cl)n1 [Example 32, N-[6-Chloro-2-(1,1-dioxidotetrahydro-2H-thiopyran-4-yl)-2H-indazol-5-yl]-6-(2-hydroxypropan-2-yl)pyridine-2-carboxamide]",280
3,"CC(C)(O)c1cc2nn(C3CCOCC3)cc2cc1NC(=O)c1cccc(C(F)(F)F)n1 [Example 34, N-[6-(2-Hydroxypropan-2-yl)-2-(tetrahydro-2H-pyran-4-yl)-2H-indazol-5-yl]-6-(trifluoromethyl)pyridine-2-carboxamide]",230

# Target: human IRAK4 (Homo sapiens (Human), UniProt Q9NWZ3)
# Sequence (Q9NWZ3 whole entry): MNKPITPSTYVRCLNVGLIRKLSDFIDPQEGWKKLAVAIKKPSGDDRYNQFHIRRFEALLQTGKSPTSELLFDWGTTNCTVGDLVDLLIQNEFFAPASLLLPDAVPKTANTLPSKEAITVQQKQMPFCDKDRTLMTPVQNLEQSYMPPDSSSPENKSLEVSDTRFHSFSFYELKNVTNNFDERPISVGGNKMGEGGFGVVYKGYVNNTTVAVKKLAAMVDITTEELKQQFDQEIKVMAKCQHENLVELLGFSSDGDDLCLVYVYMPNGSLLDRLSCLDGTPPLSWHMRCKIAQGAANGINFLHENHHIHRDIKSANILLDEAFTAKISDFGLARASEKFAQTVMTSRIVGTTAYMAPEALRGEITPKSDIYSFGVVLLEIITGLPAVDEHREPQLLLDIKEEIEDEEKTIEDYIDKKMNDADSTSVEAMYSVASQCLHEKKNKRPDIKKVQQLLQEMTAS
# Assay: IRAK4 kinase assay (IRAK4 TR-FRET assay)
# Format: biochemical
# Details: 1 mM ATP
# Description: The IRAK4-inhibitory activity of the substances according to the invention was measured in the IRAK4 TR-FRET assay (TR-FRET=Time Resolved Fluorescence Resonance Energy Transfer) described hereinafter.
# Recombinant fusion protein from N-terminal GST (glutathione S-transferase) and human IRAK4, expressed in baculovirus-infected insect cells (Hi5, BTI-TN-5B1-4, cell line purchased from Invitrogen, catalogue No. B855-02) and purified via affinity chromatography, was used as enzyme. The substrate used for the kinase reaction was the biotinylated peptide biotin-Ahx-[…] (C-terminus in amide form) which can be purchased, for example, from Biosyntan GmbH (Berlin-Buch).
# For the assay, 11 different concentrations in the range from 20 μM to 0.073 nM were prepared from a 2 mM solution of the test substance in DMSO. 50 nl of the respective solution were pipetted into a black low-volume 384-well microtitre plate (Greiner Bio-One, Frickenhausen, Germany), 2 μl of a solution of IRAK4 in assay buffer [50 mM HEPES pH 7.5, 5 mM MgCl2, 1.0 mM dithiothreitol, 30 μM activated sodium orthovanadate, 0.1% (w/v) of bovine gamma-globulin (BGG) 0.04% (v/v) nonidet-P40 (Sigma)] were added and the mixture was incubated for 15 min to allow prebinding of the substances to the enzyme prior to the kinase reaction. The kinase reaction was then started by addition of 3 μl of a solution of adenosine triphosphate (ATP, 1.67 mM=final concentration in 5 μl of assay volume: 1 mM) and peptide substrate (0.83 μM=final concentration in 5 μl assay volume: 0.5 μM) in assay buffer, and the resulting mixture was incubated at 22° C. for the reaction time of 45 min. The concentration of the IRAK4 was adjusted to the respective activity of the enzyme and set such that the assay was carried out in the linear range. Typical concentrations were in the order of about 0.2 nM. The reaction was stopped by addition of 5 μl of a solution of TR-FRET detection reagents [0.1 μM streptavidin-XL665 (Cisbio Bioassays; France, catalogue No. 610SAXLG)] and 1.5 nM anti-phosphoserine antibody [Merck Millipore, “STK Antibody”, catalogue No. 35-002] and 0.6 nM LANCE EU-W1024-labelled anti-mouse-IgG antibody (Perkin-Elmer, product No. AD0077; alternatively, it is possible to use a terbium cryptate-labelled anti-mouse-IgG antibody from Cisbio Bioassays) in aqueous EDTA solution (100 mM EDTA, 0.4% [w/v] bovine serum albumin [BSA] in 25 mM HEPES pH 7.5).
# The resulting mixture was incubated at 22° C. for 1 h to allow formation of a complex of the biotinylated phosphorylated substrate and the detection reagents. The amount of the phosphorylated substrate was then evaluated by measuring the resonance energy transfer from europium chelate-labelled anti-mouse-IgG antibody to streptavidin-XL665. To this end, the fluorescence emissions at 620 nm and 665 nm were measured after excitation at 350 nm in a TR-FRET measuring instrument, for example a Rubystar (BMG Labtechnologies, Offenburg, Germany) or a Viewlux (Perkin-Elmer). The ratio of the emissions at 665 nm and 622 nm was taken as a measure of the amount of phosphorylated substrate. The data were normalized (enzyme reaction without test substance=0% inhibition; all other assay components but no enzyme=100% inhibition). Typically, the test substances were tested on the same microtitre plates at 11 different concentrations in the range from 20 μM to 0.073 nM (20 μM, 5.7 μM, 1.6 μM, 0.47 μM, 0.13 μM, 38 nM, 11 nM, 3.1 nM, 0.89 nM, 0.25 nM and 0.073 nM). The dilution series were prepared prior to the assay (2 mM to 7.3 nM in 100% DMSO) by serial dilutions. The IC50 values were calculated using a 4-parameter fit.
row,Compound,IC50 [nM]
1,"O=C(Nc1cc2cn(C3CCOCC3)nc2cc1Cl)c1nc(C(F)(F)F)cs1 [Example 50, N-[6-Chloro-2-(tetrahydro-2H-pyran-4-yl)-2H-indazol-5-yl]-4-(trifluoromethyl)-1,3-thiazole-2-carboxamide]",496
2,"NC(=O)c1cc2nn(C3CCNCC3)cc2cc1NC(=O)c1cccc(C(F)(F)F)n1 [Example 53, 2-(Piperidin-4-yl)-5-({[6-(trifluoromethyl)pyridin-2-yl]carbonyl}amino)-2H-indazole-6-carboxamide]",1
3,"CC(C)(O)CCN1CCC(n2cc3cc(NC(=O)c4cccc(C(F)(F)F)n4)c(C(N)=O)cc3n2)CC1 [Example 56, 2-[1-(3-Hydroxy-3-methylbutyl)piperidin-4-yl]-5-({[6-(trifluoromethyl)pyridin-2-yl]carbonyl}amino)-2H-indazole-6-carboxamide]",4
4,"O=C(Nc1cc2cn(C3CCS(=O)(=O)CC3)nc2cc1OCC1CC1)c1cccc(C(F)(F)F)n1 [Example 17, N-[6-(Cyclopropylmethoxy)-2-(1,1-dioxidotetrahydro-2H-thiopyran-4-yl)-2H-indazol-5-yl]-6-(trifluoromethyl)pyridine-2-carboxamide]",20
5,"COc1cc2nn(C3CCOCC3)cc2cc1NC(=O)c1nc(C(F)(F)F)cs1 [Example 47, N-[6-Methoxy-2-(tetrahydro-2H-pyran-4-yl)-2H-indazol-5-yl]-4-(trifluoromethyl)-1,3-thiazole-2-carboxamide]",65
6,"CC(C)(O)c1cccc(C(=O)Nc2cc3cn(C4CCS(=O)(=O)CC4)nc3cc2Cl)n1 [Example 32, N-[6-Chloro-2-(1,1-dioxidotetrahydro-2H-thiopyran-4-yl)-2H-indazol-5-yl]-6-(2-hydroxypropan-2-yl)pyridine-2-carboxamide]",34
7,"COc1cc2nn(C3CCN(CCN(C)C)CC3)cc2cc1NC(=O)c1cccc(C(F)(F)F)n1 [Example 9, N-(2-{1-[2-(Dimethylamino)ethyl]piperidin-4-yl}-6-methoxy-2H-indazol-5-yl)-6-(trifluoromethyl)pyridine-2-carboxamide]",1
8,"CC(C)(O)c1cc2nn(C3CCOCC3)cc2cc1NC(=O)c1cccc(C(F)(F)F)n1 [Example 34, N-[6-(2-Hydroxypropan-2-yl)-2-(tetrahydro-2H-pyran-4-yl)-2H-indazol-5-yl]-6-(trifluoromethyl)pyridine-2-carboxamide]",6
9,"COc1cc2nn(C3CCN(C4CCN(C)CC4)CC3)cc2cc1NC(=O)c1cccc(C(F)(F)F)n1 [Example 6, N-[6-Methoxy-2-(1′-methyl-1,4′-bipiperidin-4-yl)-2H-indazol-5-yl]-6-(trifluoromethyl)pyridine-2-carboxamide]",2
10,"COC(=O)c1cc2nn(C3CCN(C)CC3)cc2cc1NC(=O)c1cccc(C(F)(F)F)n1 [Example 55, Methyl 2-(1-methylpiperidin-4-yl)-5-({[6-(trifluoromethyl)pyridin-2-yl]carbonyl}amino)-2H-indazole-6-carboxylate]",1
11,"COc1cc2nn(C3CCS(=O)(=O)CC3)cc2cc1NC(=O)c1cccc(C(F)(F)F)n1 [Example 11, N-[2-(1,1-Dioxidotetrahydro-2H-thiopyran-4-yl)-6-methoxy-2H-indazol-5-yl]-6-(trifluoromethyl)pyridine-2-carboxamide]",3
12,"COc1cc2nn(C3CCOCC3)cc2cc1NC(=O)c1nc(C)no1 [Example 49, N-[6-Methoxy-2-(tetrahydro-2H-pyran-4-yl)-2H-indazol-5-yl]-3-methyl-1,2,4-oxadiazole-5-carboxamide]",3780
13,"COCCN1CCC(n2cc3cc(NC(=O)c4cccc(C(F)(F)F)n4)c(OC)cc3n2)CC1 [Example 58, N-{6-Methoxy-2-[1-(2-methoxyethyl)piperidin-4-yl]-2H-indazol-5-yl}-6-(trifluoromethyl)pyridine-2-carboxamide]",2
14,"COc1cc2nn(C3CCOCC3)cc2cc1NC(=O)c1ccn(C(F)F)n1 [Example 51, 1-(Difluoromethyl)-N-[6-methoxy-2-(tetrahydro-2H-pyran-4-yl)-2H-indazol-5-yl]-1H-pyrazole-3-carboxamide]",6
15,"CC(C)(O)c1cc2nn([C@H]3CCS(=O)(=O)C3)cc2cc1NC(=O)c1cccc(C(F)(F)F)n1 [Example 41, N-{2-[(3S)-1,1-Dioxidotetrahydrothiophen-3-yl]-6-(2-hydroxypropan-2-yl)-2H-indazol-5-yl}-6-(trifluoromethyl)pyridine-2-carboxamide]",16
16,"CN1CCC(n2cc3cc(NC(=O)c4cccc(C(F)(F)F)n4)c(C(N)=O)cc3n2)CC1 [Example 57, 2-(1-Methylpiperidin-4-yl)-5-({[6-(trifluoromethyl)pyridin-2-yl]carbonyl}amino)-2H-indazole-6-carboxamide]",2
17,"O=C(Nc1cc2cn(C3CCNCC3)nc2cc1C(=O)O)c1cccc(C(F)(F)F)n1 [Example 54, 2-(Piperidin-4-yl)-5-({[6-(trifluoromethyl)pyridin-2-yl]carbonyl}amino)-2H-indazole-6-carboxylic Acid]",75
18,"COc1cc2nn(C3CCOCC3)cc2cc1NC(=O)c1nc(-c2ccncc2)no1 [Example 48, N-[6-Methoxy-2-(tetrahydro-2H-pyran-4-yl)-2H-indazol-5-yl]-3-(pyridin-4-yl)-1,2,4-oxadiazole-5-carboxamide]",691
